Data: the supplement of paper PMC4862054

Experiments:
HDQ-P1 [1] = experiment: normalised viability (% of control), CellTiter-Blue; higher = more viable cells (about 100 = DMSO control); settings: incubation time: 72 h
Protocol: (§1)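 DSRT, CellTiter-Blue viability, 72 h incubation. Signal is normalised to DMSO and benzethonium chloride controls. Value is the normalised response at dose 9.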

CAL-51 = experiment: as above; settings: incubation time: 72 h
Protocol: as §1

CAL-148 = experiment: as above; settings: incubation time: 72 h
Protocol: as §1

DU-4475 = experiment: as above; settings: incubation time: 72 h
Protocol: as §1

CAL-85-1 [2] = experiment: as above; settings: incubation time: 72 h
Protocol: as §1

MDA-MB-453 = experiment: as above; settings: incubation time: 72 h
Protocol: as §1

HDQ-P1 [3] = experiment: normalised response (% of control), CellTiter-Glo; higher = more viable cells (100 = DMSO, 0 = benzethonium chloride kill control); settings: incubation time: 72 h
Protocol: (§2)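 DSRT, 72 h incubation, CellTox Green / CellTiter-Glo readout. Signal is normalised to DMSO and benzethonium chloride controls. Value is the normalised response at the highest dose.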

BT-549 [4] = experiment: as above; settings: incubation time: 72 h
Protocol: as §2

BT-474 = experiment: as above; settings: incubation time: 72 h
Protocol: as §2

MFM-223 = experiment: as above; settings: incubation time: 72 h
Protocol: as §2

CAL-120 [5] = experiment: as above; settings: incubation time: 72 h
Protocol: as §2

CAL-85-1 [6] = experiment: as above; settings: incubation time: 72 h
Protocol: as §2

MDA-MB-468 = experiment: as above; settings: incubation time: 72 h
Protocol: as §2

SK-BR-3 [7] = experiment: as above; settings: incubation time: 72 h
Protocol: as §2

MDA-MB-436 [8] = experiment: as above; settings: incubation time: 72 h
Protocol: as §2

BT-549 [9] = settings: 72 h
In short: (§3)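 Breast cancer cell lines in 20 µl suspension were seeded onto 384-well plates pre-loaded with compound dissolved in 5 µl medium, then incubated 72 h. For viability, 2.5 µl CellTiter-Blue was added for 2 h at 37 °C and fluorescence read at 560/590 nm. Each plate was normalised to vehicle and a positive kill control and checked by Z'-factor. EC50 comes from the fitted percent-inhibition dose-response curve, censored at the highest concentration; rows with zero drug sensitivity score were dropped.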

HCC1937 [10] = settings: 72 h
In short: as §3

CAL-120 [11] = settings: 72 h
In short: as §3

SK-BR-3 [12] = settings: 72 h
In short: as §3

MDA-MB-436 [13] = settings: 72 h
In short: as §3

HCC1937 [14] = experiment: drug sensitivity score (DSS), CellTox Green (DSS (AUC-based score)); higher = stronger drug effect (viability inhibition or cytotoxicity); extreme values may be limits of the assay; settings: incubation time: 72 h
In short: (§4)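 The drug sensitivity score reflects the area under a fitted dose-response curve. To obtain it, breast cancer cells in 20 µl suspension were seeded into 384-well plates containing compound at 5 concentrations, 10-fold apart over a compound-specific 10,000-fold range, and incubated 72 h. CellTox Green fluorescence (485/520 nm) was read first and CellTiter-Glo luminescence second, after 10 min at room temperature. Each plate was normalised to 0.1 % DMSO and a positive kill control.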

MDA-MB-231 = experiment: as above; settings: incubation time: 72 h
In short: as §4

Hs578T = experiment: as above; settings: incubation time: 72 h
In short: as §4

| EC50, CellTiter-Blue viability (BT-549 [9]) | EC50, CellTiter-Blue viability (HCC1937 [10]) | EC50, CellTiter-Blue viability (SK-BR-3 [12]) | EC50, CellTiter-Blue viability (MDA-MB-436 [13]) | Structure (SMILES) | normalised viability (HDQ-P1 [1]) | normalised viability (CAL-51) | normalised viability (CAL-148) | normalised viability (DU-4475) | normalised viability (CAL-85-1 [2]) | normalised viability (MDA-MB-453) | normalised response (HDQ-P1 [3]) | normalised response (BT-549 [4]) | normalised response (BT-474) | normalised response (MFM-223) | normalised response (CAL-120 [5]) | normalised response (CAL-85-1 [6]) | normalised response (MDA-MB-468) | normalised response (SK-BR-3 [7]) | normalised response (MDA-MB-436 [8]) | EC50, CellTiter-Blue viability (CAL-120 [11]) | drug sensitivity score (HCC1937 [14]) | drug sensitivity score (MDA-MB-231) | drug sensitivity score (Hs578T) |
| --- | --- | --- | --- | --- | --- | --- | --- | --- | --- | --- | --- | --- | --- | --- | --- | --- | --- | --- | --- | --- | --- | --- | --- |
|  |  |  |  | CN1CC[C@H](c2c(O)cc(O)c3c(=O)cc(-c4ccccc4Cl)oc23)[C@H](O)C1 [Alvocidib] (10000 nM) | 16.4% | 5.62% | 17% | 1.22% | 2.66% | 10.1% | 26.2% | 5.51% | 21.7% | 10% | 37% | 7.8% | 5.01% | 1.32% | 20.1% |  |  |  |  |
|  |  |  |  | Nc1nc(Cl)nc2c1ncn2[C@H]1C[C@H](O)[C@@H](CO)O1 [Cladribine] (1000 nM) | 104% | 69.8% | 52.4% | 40.3% | 67.8% | 73.7% | 89.2% | 39.6% | 74.8% | 109% | 79% | 75.5% | 87.9% | 74.1% | 77.3% |  |  |  |  |
|  |  |  |  | Nc1ccn([C@@H]2O[C@H](CO)[C@@H](O)[C@@H]2O)c(=O)n1 [Cytarabine] (10000 nM) | 87.4% | 14.7% | 29.1% | 22.1% | 68.2% | 58.7% | 77.4% | 56.6% | 87.2% | 106% | 88.1% | 69.3% | 62.9% | 43% | 38.7% |  |  |  |  |
|  |  |  |  | Cc1c2oc3c(C)ccc(C(=O)N[C@@H]4C(=O)N[C@H](C(C)C)C(=O)N5CCC[C@H]5C(=O)N(C)CC(=O)N(C)[C@@H](C(C)C)C(=O)O[C@@H]4C)c3nc-2c(C(=O)N[C@@H]2C(=O)N[C@H](C(C)C)C(=O)N3CCC[C@H]3C(=O)N(C)CC(=O)N(C)[C@@H](C(C)C)C(=O)O[C@@H]2C)c(N)c1=O [Dactinomycin] (1000 nM) | 16.8% | 4.61% | 12% | -0.64% | 2.21% | 5.82% | 24.8% | 1.88% | 12.8% | 11.9% | 33.1% | 5.09% | 4.19% | 1.39% | 17.1% |  |  |  |  |
|  |  |  |  | COc1cccc2c1C(=O)c1c(O)c3c(c(O)c1C2=O)C[C@@](O)(C(=O)CO)C[C@@H]3O[C@H]1C[C@H](N)[C@H](O)[C@H](C)O1 [Doxorubicin] (1000 nM) | 13.7% | 3.87% | -1.37% | -2.19% | 7.31% | 3.55% | 46.7% | 14.9% | 22.1% | 72.6% | 43.4% | 17.7% | 7.26% | 8.83% | 28.6% |  |  |  |  |
|  |  |  |  | Cc1ccc(F)c(NC(=O)Nc2ccc(-c3cccc4[nH]nc(N)c34)cc2)c1 [Linifanib] (1000 nM) | 120% | 98.1% | 80.2% | 99.5% | 96.8% | 111% | 115% | 103% | 101% | 108% | 109% | 101% | 108% | 108% | 111% |  |  |  |  |
| 918 nM | 24.6 nM | 14.9 nM | 145 nM | COc1cc(Nc2ncc3c(n2)-c2ccc(Cl)cc2C(c2c(F)cccc2OC)=NC3)ccc1C(=O)O [MLN8237] |  |  |  |  |  |  |  |  |  |  |  |  |  |  |  | 593 nM |  |  |  |
|  | 1550 nM |  |  | S=c1[nH]cnc2nc[nH]c12 [Mercaptopurine] |  |  |  |  |  |  |  |  |  |  |  |  |  |  |  | 9910 nM | 0 | 0 | 0 |
|  |  |  |  | S=c1[nH]cnc2nc[nH]c12 [Mercaptopurine] (10000 nM) | 90.3% | 75.1% | 86.6% | 102% | 80.3% | 100% | 35.9% | 94.8% | 31.6% | 85.5% | 27.3% | 79.3% | 96.8% | 85.8% | 85.8% |  |  |  |  |
|  |  |  |  | Clc1ccc(C(c2ccccc2Cl)C(Cl)Cl)cc1 (stereo not given) [Mitotane] (10000 nM) | 109% | 109% | 110% | 97.4% | 89.7% | 89.7% | 99.8% | 95.6% | 88.2% | 97% | 99.2% | 97% | 96.2% | 98.7% | 97.4% |  |  |  |  |
